Read-outs that look alike come from different tables or passages of the source.
Test system: HIV-1
Assay: HIV-1 infection assay (antiviral potency, MT4-GFP reporter cells)
Type: cell-based
Experimental: HIV-1 replication was monitored using MT4-gag-GFP clone D3 (hereafter designate MT4-GFP), which are MT-4 cells modified to harbor a GFP reporter gene, the expression of which is dependent on the HIV-1 expressed proteins tat and rev. Productive infection of an MT4-GFP cell with HIV-1 results in GFP expression approximately 24 h post-infection.
MT4-GFP cells were maintained at 37° C./5% CO2/90% relative humidity in RPMI 1640 supplemented with 10% fetal bovine serum, 100 U/ml penicillin/streptomycin, and 400 μg/ml G418 to maintain the reporter gene. For infections, MT4-GFP cells were placed in the same medium lacking G418 and infected overnight with H9IIIB or NL4-3 virus at an approximate multiplicity of infection of 0.01 in the same incubation conditions. Cells were then washed and resuspended in either RPMI 1640 containing no serum at 1.6×10^5 cells/mL (serum free conditions), 10% normal human serum at 1.6×10^5 cells/mL (10% NHS conditions) or in 100% normal human serum at 2×10^5 cells/mL (100% NHS conditions). Compound plates were prepared by dispensing compounds taken up in DMSO into wells of 384 well poly D lysine-coated plates (0.2 μl/well) using an ECHO acoustic dispenser. Each compound was tested in a 10 point serial 3-fold dilution (typical final concentrations: 4.2 μM-0.21 nM). Controls included no inhibitor (DMSO only) and a combination of three antiviral agents (efavirenz, indinavir, and the integrase strand transfer inhibitor L-002254051 at final concentrations of 4 μM each). Cells were added (50 μL/well) to compound plates and the infected cells were maintained at 37° C./5% CO2/90% relative humidity.
Infected cells were quantified at two time points, ˜48 h and ˜72 h post-infection, by counting the number of green cells in each well using an Acumen eX3 scanner. The increase in the number of green cells over ˜24 h period gives the reproductive ratio, R0, which is typically 5-15 and has been shown experimentally to be in logarithmic phase (data not shown). Inhibition of R0 is calculated for each well, and IC50 value was determined using non-linear 4-parameter curve fitting.

[1] = Human immunodeficiency virus 1, NL43, MT4-GFP cells infected with H9IIIB or NL4-3 virus, 100% normal human serum, inhibition of reproductive ratio R0, read-out: VIKING IP (nM) with 100% NHS
[2] = Human immunodeficiency virus 1, NL43, MT4-GFP cells infected with H9IIIB or NL4-3 virus, serum free conditions (0% NHS), inhibition of reproductive ratio R0, read-out: VIKING IP (nM) with 0% NHS
[3] = Human immunodeficiency virus 1, NL43, read-out: VIKING IP (nM) with 0% NHS

Compound: CC(C)OC(=O)OCOP(=O)(O)CCN1n2cc(C(=O)NCc3ccc(F)cc3F)c(=O)c(O)c2C(=O)N(C)[C@]12CCOC2 [Compound 14]
- IC50 [1]: 89 nM
- IC50 [2]: 1.6 nM

Compound: CN1n2cc(C(=O)NCc3ccc(F)cc3F)c(=O)c(O)c2C(=O)N(CCP(=O)(O)O)C12CCOC2 (single isomer, unassigned) [Compound 46]
- IC50 [1]: 775 nM
- IC50 [2]: 92.1 nM

Compound: CN1n2cc(C(=O)NCc3ccc(F)cc3F)c(=O)c(O)c2C(=O)N(CCP(=O)(O)O)C12CCOC2 (centres unmarked) [Compound 42]
- IC50 [1]: 447 nM
- IC50 [2]: 54.8 nM

Compound: CC(C)OC(=O)OCOP(=O)(O)CCN1n2cc(C(=O)NCc3ccc(F)cc3F)c(=O)c(O)c2C(=O)N(C)[C@@]12CCOC2 [Compound 12]
- IC50 [1]: 156 nM
- IC50 [2]: 0.8 nM

Compound: CC(C)OC(=O)OCOP(=O)(CCCN1C(=O)c2c(O)c(=O)c(C(=O)NCc3ccc(F)cc3F)cn2N(CCP(=O)(OCOC(=O)OC(C)C)OCOC(=O)OC(C)C)C12CCOC2)OCOC(=O)OC(C)C (racemic) [Compound 49]
- IC50 [1]: 8.8 nM
- IC50 [2]: 0.3 nM

Compound: CCOP(=O)(CCN1C(=O)c2c(O)c(=O)c(C(=O)NCc3ccc(F)cc3F)cn2N(C)C12CCOC2)OCC (single isomer, unassigned) [Compound 45]
- IC50 [1]: 118 nM
- IC50 [2]: 2.9 nM

Compound: CC(C)OC(=O)[C@H](C)NP(=O)(CCN1C(=O)c2c(O)c(=O)c(C(=O)NCc3ccc(F)cc3F)cn2N(C)C12CCOC2)Oc1ccccc1 (single isomer, unassigned) [Compound 48]
- IC50 [3]: 23.8 nM

Compound: CN1C(=O)c2c(O)c(=O)c(C(=O)NCc3ccc(F)cc3F)cn2N(CCP(=O)(O)O)[C@@]12CCOC2 (single isomer, unassigned) [Compound 10]
- IC50 [1]: 449 nM
- IC50 [2]: 14.4 nM

Compound: CC(C)OC(=O)OCOP(=O)(CCN1C(=O)c2c(O)c(=O)c(C(=O)NCc3ccc(F)cc3F)cn2N(C)C12CCOC2)OCOC(=O)OC(C)C (single isomer, unassigned) [Compound 47]
- IC50 [1]: 106 nM
- IC50 [2]: 2.9 nM

Compound: CCOP(=O)(CCN1C(=O)c2c(O)c(=O)c(C(=O)NCc3ccc(F)cc3F)cn2N(C)C12CCOC2)OCC (centres unmarked) [Compound 40]
- IC50 [1]: 92.6 nM
- IC50 [2]: 3.6 nM

Compound: CC(C)OC(=O)OCOP(=O)(CCN1n2cc(C(=O)NCc3ccc(F)cc3F)c(=O)c(O)c2C(=O)N(C)[C@]12CCOC2)OCOC(=O)OC(C)C [Compound 13]
- IC50 [1]: 1.8 nM
- IC50 [2]: 0.04 nM

Compound: CC(C)OC(=O)[C@H](C)NP(=O)(CCN1n2cc(C(=O)NCc3ccc(F)cc3F)c(=O)c(O)c2C(=O)N(C)[C@]12CCOC2)Oc1ccccc1 (some centres unmarked) [Compound 16]
- IC50 [3]: 3.7 nM

Compound: CN1C(=O)c2c(O)c(=O)c(C(=O)NCc3ccc(F)cc3F)cn2N(CCP(=O)(O)O)[C@]12CCOC2 (single isomer, unassigned) [Compound 9]
- IC50 [1]: 961 nM
- IC50 [2]: 23.3 nM

Compound: CC(C)OC(=O)[C@H](C)NP(=O)(CCN1n2cc(C(=O)NCc3ccc(F)cc3F)c(=O)c(O)c2C(=O)N(C)[C@@]12CCOC2)Oc1ccccc1 (some centres unmarked) [Compound 15]
- IC50 [3]: 3.9 nM

Compound: CC(C)OC(=O)OCOP(=O)(CCN1n2cc(C(=O)NCc3ccc(F)cc3F)c(=O)c(O)c2C(=O)N(C)[C@@]12CCOC2)OCOC(=O)OC(C)C [Compound 11]
- IC50 [1]: 1.5 nM
- IC50 [2]: 0.05 nM

Compound: CCCOP(=O)(CCN1n2cc(C(=O)NCc3ccc(F)cc3F)c(=O)c(O)c2C(=O)N(C)[C@]12CCOC2)OCC (single isomer, unassigned) [Compound 6]
- IC50 [1]: 45.9 nM
- IC50 [2]: 2 nM

Compound: CC(C)OC(=O)OCOP(=O)(CCN1C(=O)c2c(O)c(=O)c(C(=O)NCc3ccc(F)cc3F)cn2N(C)C12CCOC2)OCOC(=O)OC(C)C (centres unmarked) [Compound 43]
- IC50 [1]: 43.4 nM
- IC50 [2]: 1.2 nM

Compound: CC(C)OC(=O)[C@H](C)NP(=O)(CCN1C(=O)c2c(O)c(=O)c(C(=O)NCc3ccc(F)cc3F)cn2N(C)C12CCOC2)Oc1ccccc1 (some centres unmarked) [Compound 44]
- IC50 [3]: 13.4 nM
